US10398783B2, “Antiproliferative compounds and conjugates made therefrom” (BRISTOL-MYERS SQUIBB COMPANY, priority 2016, dated 2019)

Legend:
Format in all cases: cell-based, human
[1] = test system: mesothelioma (H226) cancer cell line; assay: 72 hr ATP luminescence cell proliferation inhibition assay, H226
Protocol: (§1) Proliferation inhibition was measured using a 72 hr ATP luminescence assay (Cheng et al., U.S. Pat. No. 8,394,922 B2 (2013)). The antiproliferative effects are reported as IC50's, i.e., the concentration of compound that produces a 50% inhibitory effect on cell proliferation.

[2] = test system: gastric (stomach) cancer (N87) cell line; assay: 72 hr ATP luminescence cell proliferation inhibition assay, N87; conditions: N87 cells
Protocol: as §1

[3] = test system: colon cancer (HCT116) cell line; assay: 72 hr ATP luminescence cell proliferation inhibition assay, HCT116
Protocol: as §1

[4] = test system: ovarian cancer (OVCAR3) cell line; assay: 72 hr ATP luminescence cell proliferation inhibition assay, OVCAR3
Protocol: as §1

Structure (SMILES) | IC50 ([1]; H226 cells) [nM] | IC50 [2] [nM] | IC50 ([3]; HCT116 cells) [nM] | IC50 ([4]; OVCAR3 cells) [nM] | IC50 ([1]; Homo sapiens, NCI-H226, H226 cells) [nM] | IC50 ([2]; Homo sapiens) [nM] | IC50 ([3]; Homo sapiens, HCT-116, HCT116 cells) [nM] | IC50 ([4]; Homo sapiens, OVCAR-3, OVCAR3 cells) [nM]
COc1cc2c(cc1OCCCC(=O)Nc1cc(C(=O)Nc3ccc(-n4cnc(C)n4)nc3)n(C)c1)N=C[C@@H]1Cc3ccccc3CN1C2=O [(Ib-06)] | < 0.004 | 0.009 | 0.008 | 0.031 | – | – | – | –
COc1cc2c(cc1OCCCC(=O)Nc1cc(C(=O)Nc3ccc(-n4cnc(Cl)c4)nc3)n(C)c1)N=C[C@@H]1Cc3ccccc3CN1C2=O [(Ib-07)] | 0.02 | 0.073 | 0.018 | 0.024 | – | – | – | –
COc1cc2c(cc1OCCCC(=O)Nc1cc(C(=O)Nc3ccc(-n4cnc(C)n4)c(OC)c3)n(C)c1)N=C[C@@H]1Cc3ccccc3CN1C2=O [(Ib-13)] | – | – | – | – | 0.039 | 0.14 | 0.036 | 0.17
COc1cc2c(cc1OCCCC(=O)Nc1cc(C(=O)Nc3ccc(-n4cnc(C)n4)c(C(F)F)c3)n(C)c1)N=C[C@@H]1Cc3ccccc3CN1C2=O [(Ib-09)] | 0.05 | 0.035 | 0.039 | 0.12 | – | – | – | –
COC(=O)c1cc(NC(=O)c2cc(NC(=O)CCCOc3cc4c(cc3OC)C(=O)N3Cc5ccccc5C[C@H]3C=N4)cn2C)cn1C [(Ib-40)] | 0.1 | 0.09 | 0.028 | 0.16 | – | – | – | –
COc1cc2c(cc1OCCCC(=O)Nc1cc(C(=O)Nc3ccc(-n4ccnc4)cc3)n(C)c1)N=C[C@@H]1Cc3ccccc3CN1C2=O [(Ib-22)] | 0.18 | 0.24 | 0.088 | 0.91 | – | – | – | –
COc1cc2c(cc1OCCCC(=O)Nc1cc(C(=O)Nc3ccc4c(c3)Cc3cc(N)ccc3-4)n(C)c1)N=C[C@@H]1Cc3ccccc3CN1C2=O [(Ib-34)] | < 0.004 | 0.006 | < 0.004 | 0.025 | – | – | – | –
COC(=O)c1cc(-c2ccc(NC(=O)c3nc(NC(=O)CCCOc4cc5c(cc4OC)C(=O)N4Cc6ccccc6C[C@H]4C=N5)cn3C)cc2)cn1C [(Ib-55)] | 0.018 | < 0.004 | 0.004 | 0.045 | – | – | – | –
COc1cc2c(cc1OCCCC(=O)Nc1cc(C(=O)Nc3ccc(-n4cnc(C)n4)c(OCC(F)F)c3)n(C)c1)N=C[C@@H]1Cc3ccccc3CN1C2=O [(Ib-11)] | 0.98 | 0.12 | 0.026 | 0.1 | – | – | – | –
COc1cc2c(cc1OCCCC(=O)Nc1cc(C(=O)Nc3ccc(-n4cnc(C)n4)cc3)n(C)c1)N=C[C@@H]1Cc3ccccc3CN1C2=O [(Ib-16)] | < 0.004 | < 0.004 | < 0.004 | 0.12 | – | – | – | –
COc1cc2c(cc1OCCCC(=O)Nc1cc(C(=O)Nc3ccc(-n4cnc(C(F)F)c4)c(OC)c3)n(C)c1)N=C[C@@H]1Cc3ccccc3CN1C2=O [(Ib-18)] | 0.11 | 0.052 | 0.055 | 0.2 | – | – | – | –
COC(=O)c1nc(-c2ccc(NC(=O)c3cc(NC(=O)CCCOc4cc5c(cc4OC)C(=O)N4Cc6ccccc6C[C@H]4C=N5)cn3C)cc2)cn1C [(Ib-25)] | 0.15 | 0.084 | 0.057 | 0.35 | – | – | – | –
COc1cc2c(cc1OCCCC(=O)Nc1cc(C(=O)Nc3ccc4c(c3)oc3ccccc34)n(C)c1)N=C[C@@H]1Cc3ccccc3CN1C2=O [(Ib-33)] | < 0.004 | < 0.004 | < 0.004 | 0.052 | – | – | – | –
COc1cc2c(cc1OCCCC(=O)Nc1cc(C(=O)Nc3cccnc3)n(C)c1)N=C[C@@H]1Cc3ccccc3CN1C2=O [(Ib-46)] | 0.27 | 0.12 | 0.13 | 0.55 | – | – | – | –
COc1cc2c(cc1OCCCC(=O)Nc1cc(C(=O)Nc3ccc(-n4cnc(C)n4)c(F)c3)n(C)c1)N=C[C@@H]1Cc3ccccc3CN1C2=O [(Ib-08)] | 0.007 | 0.006 | < 0.004 | 0.013 | – | – | – | –
COc1ccc(-c2ccc(NC(=O)c3cc(NC(=O)CCCOc4cc5c(cc4OC)C(=O)N4Cc6ccccc6C[C@H]4C=N5)cn3C)cc2)cc1 [(Ib-15)] | < 0.004 | < 0.004 | 0.002 | < 0.004 | – | – | – | –
